This data set in a line: Percent Diclofenac Sodium in Suspension (dependence on concentration and pH). Format: physicochemical. As to conditions: below a pH of about 6.8; formulation containing 1% diclofenac sodium. From the text: The solubility of non-steroidal anti-inflammatory agents is pH dependent, i.e., normally the higher the pH, the higher the solubility of the drug in the formulation. […] Formulating the composition as a suspension rather than as a solution inhibits immediate contact between the drug and tissues of the eye and in that way reduces the stinging and burning sensation experienced when a solution of such drugs places all of the drug in immediate contact with the ocular tissues.
Thus, by providing at least some of the diclofenac in suspension, via pH control, lower transient burning and stinging would be observed when administered to patients.

`O=C(O)Cc1ccccc1Nc1c(Cl)cccc1Cl` [Diclofenac Sodium, sodium ortho-(2,6-dichlorophenyl)aminophenylacetate acid]: the “diclofenac in suspension (in words)” value is listed as “virtually all of the diclofenac in suspension”.

For the origin of these results see US6309630A, “Non-steroidal anti-inflammatory ophthalmic suspensions” (Insite Vision Incorporated, priority 1994, dated 2001).
